Like-named read-outs stand apart in the source and are kept apart here.
Columns and labels:
carragenin-induced edema = carragenin-induced edema test (antinflammatory activity); type: in vivo, rats
Experimental: (§1) Preparations of the compound were administered orally and/or parenterally in a suspension in 0.59% carboxymethylcellulose in pH neutral physiological saline.
This effect was evaluated with an experimental model reproducing actue inflammation in rats: the carragenin-induced edema test was used, according to the method of C. A. Winter (G. Pharmac. Exp. Ther., 141, 369 (1963)). Table III reports the compounds tested, their concentrations, administration routes and relative percent edema inhibition.

[1] = test system: p-phenylquinone-induced writhing; experiment: p-phenylquinone-induced writhing test (analgesic activity); type: in vivo; settings: an hour after administration
Experimental: as §1
The determination was made an hour after administration of the product. The inhibitory effect on abdominal contractions induced by phenyl-p-quinone was calculated as follows: [formula]
Table IV reports the doses, the administration routes and their effectiveness expressed as % protection.

[2] = test system: hyperthermia induced by dry purified beer yeast; experiment: antipyretic activity, beer yeast-induced hyperthermia; type: in vivo, Wistar strain male albino rats
Experimental: as §1
This effect was evaluated by inducing hyperthermia in Wistar strain male albino rats with an average weight of 250±10 g, injecting them intraperitoneally with a 10% suspension of dry purified beer yeast (Carlo Erba) in a volume of 10 ml/Kg of body weight, according to the method of S. Wong et al. (J. Pharmac. Exp. Ther., 185 (1), 127 (1973)).

[3] = test system: platelet aggregation (ADP-induced); experiment: in vitro anti-platelet aggregant activity (Born's method, ADP); type: cell-based, rat; settings: for inhibition at 1 µg/mL / inhibition at 5 µg/mL / inhibition at 10 µg/mL: Rattus norvegicus, Platelet, read-out: Inhibition % (platelet aggregation)
Experimental: This activity was studied in vitro following Born's method (G. W. R. Born, Nature, 194, 937 (1962)) and inducing platelet aggregation with ADP. […] For the aggregation test, 0.2 ml of platelet rich plasma was mixed with a NaCl solution (0.9%) to which the test substance was added up to a final volume of 0.6 ml. Incubation was fixed at 3 minutes at 27° C. After aggregation was induced with ADP, the course of the aggregation was monitored continuously with an Elvi 840 Aggregometer (Elvi Logos--Milan). The antiaggregant effects were determined by the difference in the light transmission of the sample with respect to that of the ADP control. The test compound was compared with aspirin, which has known antiplatelet aggregant activity (H. J. Weiss et al., J. Clin. Inv., 47, 2169 (1968); Platelet Aggregation and Drugs, edited by L. Caprino and E. C. Rossi, page 235, Academic Press (London), 1974).
Table VI reports the inhibition of platelet aggregation with various doses of the compounds tested at a constant ADP concentration.

gastric mucosa = experiment: gastric tolerance (ulcerogenic activity); settings: orally, four consecutive days; for Mean number severity: severity scale 0-5
Experimental: This was studied by testing ulcerogenic activity in male Wistar rats weighing an average of 180 g, using groups of 10 animals each. Three doses of each substance were used, and one group of animals was treated with vehicle only, in a volume of 10 ml/g body weight. Each dose was administered orally for four consecutive days, and the rats were killed on the fifth day and autopsied. The ulcerogenic effect was evaluated on the following scale:
(1) each hemorrhage point >1 mm was evaluated as 1 lesion
(2) the hemorrhage points <1 were counted as follows:
(b) from 1 to 19 2 lesions
(c) from 1 to 29 3 lesions
(2) gastric mucosa irritation
(3) hemorrhage points <1 mm
(4) hemorrhage points from 1 to 3 mm
(5) hemorrhage points >3 mm
This scale was used to calculate the following index of gastric damage: [formula]

With `COc1ccccc1NC(=O)CNC(=O)Cc1ccc(C(=O)c2ccc(C)cc2)n1C` [Compound 1d] the Oedema inhibition % (carragenin-induced edema; i.p., 10 mg/kg, 3 h) was 48.7%, the Oedema inhibition % (carragenin-induced edema; i.p., 10 mg/kg, 6 h) was 36.5% and the Oedema inhibition % (carragenin-induced edema; i.p., 10 mg/kg, 24 h) was 0.0%. For the same compound, the Oedema inhibition % (carragenin-induced edema; i.p., 50 mg/kg, 3 h) was 59.2%, the Oedema inhibition % (carragenin-induced edema; i.p., 50 mg/kg, 6 h) was 52.0% and the Oedema inhibition % (carragenin-induced edema; i.p., 50 mg/kg, 24 h) was 18.9%. The Oedema inhibition % (carragenin-induced edema; i.p., 100 mg/kg, 3 h) was 78.6%, the Oedema inhibition % (carragenin-induced edema; i.p., 100 mg/kg, 6 h) was 66.3% and the Oedema inhibition % (carragenin-induced edema; i.p., 100 mg/kg, 24 h) was 30.5%. It also gave an Oedema inhibition % (carragenin-induced edema; os, 10 mg/kg, 3 h) of 47.2%, an Oedema inhibition % (carragenin-induced edema; os, 10 mg/kg, 6 h) of 40.0% and an Oedema inhibition % (carragenin-induced edema; os, 10 mg/kg, 24 h) of 9.0%. It also gave an Oedema inhibition % (carragenin-induced edema; os, 50 mg/kg, 3 h) of 58.5%, an Oedema inhibition % (carragenin-induced edema; os, 50 mg/kg, 6 h) of 54.0% and an Oedema inhibition % (carragenin-induced edema; os, 50 mg/kg, 24 h) of 30.0%. For the same compound, the Oedema inhibition % (carragenin-induced edema; os, 100 mg/kg, 3 h) was 77.1%, the Oedema inhibition % (carragenin-induced edema; os, 100 mg/kg, 6 h) was 66.0% and the Oedema inhibition % (carragenin-induced edema; os, 100 mg/kg, 24 h) was 38.0%. For the same compound, the “antinflammatory, analgesic and antipyretic activity versus ester analogue (4) (in words)” value (carragenin-induced edema; rat, in vivo) was “comparable to that of the ester analogue (4)”, the Protection % ([1]; i.p., 5 mg/kg) was 29.0% and the Protection % ([1]; i.p., 10 mg/kg) was 60.1%. The Protection % ([1]; i.p., 20 mg/kg) was 73.4%, the Protection % ([1]; os, 5 mg/kg) was 22.9% and the Protection % ([1]; os, 10 mg/kg) was 54.2%. The Protection % ([1]; os, 20 mg/kg) was 70.1%, the Temperature decrease % ([2]; i.p., 50 mg/kg, 1 h) was 18.0% and the Temperature decrease % ([2]; i.p., 50 mg/kg, 2 h) was 26.0%. It also gave a Temperature decrease % ([2]; i.p., 50 mg/kg, 3 h) of 39.0%, a Temperature decrease % ([2]; i.p., 75 mg/kg, 1 h) of 30.0% and a Temperature decrease % ([2]; i.p., 75 mg/kg, 2 h) of 36.1%. For the same compound, the Temperature decrease % ([2]; i.p., 75 mg/kg, 3 h) was 56.1%, the Temperature decrease % ([2]; i.p., 100 mg/kg, 1 h) was 42.0% and the Temperature decrease % ([2]; i.p., 100 mg/kg, 2 h) was 49.0%. The Temperature decrease % ([2]; i.p., 100 mg/kg, 3 h) was 48.0%, the Temperature decrease % ([2]; os, 50 mg/kg, 1 h) was 16.0% and the Temperature decrease % ([2]; os, 50 mg/kg, 6 h) was 22.0%. The Temperature decrease % ([2]; os, 50 mg/kg, 24 h) was 30.1%, the Temperature decrease % ([2]; os, 75 mg/kg, 1 h) was 18.0% and the Temperature decrease % ([2]; os, 75 mg/kg, 6 h) was 28.0%. For the same compound, the Temperature decrease % ([2]; os, 75 mg/kg, 24 h) was 48.2%, the Temperature decrease % ([2]; os, 100 mg/kg, 1 h) was 29.0% and the Temperature decrease % ([2]; os, 100 mg/kg, 6 h) was 32.0%. The Temperature decrease % ([2]; os, 100 mg/kg, 24 h) was 50.0%, the “anti-platelet aggregant activity (in words)” value [3] was “particularly pronounced anti-platelet aggregant activity” and the inhibition at 1 µg/mL ([3]; 1 γ/ml, ADP 7.08 μmol/l) was 20%. It also gave an inhibition at 5 µg/mL ([3]; 5 γ/ml, ADP 7.08 μmol/l) of 70%, an inhibition at 10 µg/mL ([3]; 10 γ/ml, ADP 7.08 μmol/l) of 90% and an Index gastric damage (gastric mucosa; 50 mg/kg) of 9. The “Index gastric damage, signed figure (untitled; difference from Carrier index 8)” value (gastric mucosa; 50 mg/kg) was “+1”, the Mean number lesions (gastric mucosa; 50 mg/kg) was 1 and the Mean number severity (gastric mucosa; 50 mg/kg) was 1. For the same compound, the Index gastric damage (gastric mucosa; 100 mg/kg) was 11, the “Index gastric damage, signed figure (untitled; difference from Carrier index 8)” value (gastric mucosa; 100 mg/kg) was “+3” and the Mean number lesions (gastric mucosa; 100 mg/kg) was 1. The Mean number severity (gastric mucosa; 100 mg/kg) was 2, the Index gastric damage (gastric mucosa; 200 mg/kg) was 12 and the “Index gastric damage, signed figure (untitled; difference from Carrier index 8)” value (gastric mucosa; 200 mg/kg) was “+4”. The Mean number lesions (gastric mucosa; 200 mg/kg) was 2 and the Mean number severity (gastric mucosa; 200 mg/kg) was 2.

For `Cc1ccc(C(=O)c2ccc(CC(=O)O)n2C)cc1` [Tolmetin Na.2H2 O, reference compound], the Oedema inhibition % (carragenin-induced edema; i.p., 10 mg/kg, 3 h) was 33.7%, the Oedema inhibition % (carragenin-induced edema; i.p., 10 mg/kg, 6 h) was 30.1% and the Oedema inhibition % (carragenin-induced edema; i.p., 10 mg/kg, 24 h) was 0.0%. For the same compound, the Oedema inhibition % (carragenin-induced edema; i.p., 50 mg/kg, 3 h) was 47.1%, the Oedema inhibition % (carragenin-induced edema; i.p., 50 mg/kg, 6 h) was 44.0% and the Oedema inhibition % (carragenin-induced edema; i.p., 50 mg/kg, 24 h) was 0.0%. For the same compound, the Oedema inhibition % (carragenin-induced edema; i.p., 100 mg/kg, 3 h) was 58.3%, the Oedema inhibition % (carragenin-induced edema; i.p., 100 mg/kg, 6 h) was 52.2% and the Oedema inhibition % (carragenin-induced edema; i.p., 100 mg/kg, 24 h) was 5.3%. The Oedema inhibition % (carragenin-induced edema; os, 10 mg/kg, 3 h) was 32.0%, the Oedema inhibition % (carragenin-induced edema; os, 10 mg/kg, 6 h) was 20.0% and the Oedema inhibition % (carragenin-induced edema; os, 10 mg/kg, 24 h) was 0.0%. For the same compound, the Oedema inhibition % (carragenin-induced edema; os, 50 mg/kg, 3 h) was 46.8%, the Oedema inhibition % (carragenin-induced edema; os, 50 mg/kg, 6 h) was 45.0% and the Oedema inhibition % (carragenin-induced edema; os, 50 mg/kg, 24 h) was 0.0%. For the same compound, the Oedema inhibition % (carragenin-induced edema; os, 100 mg/kg, 3 h) was 56.1%, the Oedema inhibition % (carragenin-induced edema; os, 100 mg/kg, 6 h) was 54.3% and the Oedema inhibition % (carragenin-induced edema; os, 100 mg/kg, 24 h) was 8.9%. The Protection % ([1]; i.p., 5 mg/kg) was 16.5%, the Protection % ([1]; i.p., 10 mg/kg) was 46.2% and the Protection % ([1]; i.p., 20 mg/kg) was 69.3%. It also gave a Protection % ([1]; os, 5 mg/kg) of 15.0%, a Protection % ([1]; os, 10 mg/kg) of 40.6% and a Protection % ([1]; os, 20 mg/kg) of 62.0%. The Temperature decrease % ([2]; i.p., 50 mg/kg, 1 h) was 16.0%, the Temperature decrease % ([2]; i.p., 50 mg/kg, 2 h) was 19.0% and the Temperature decrease % ([2]; i.p., 50 mg/kg, 3 h) was 31.0%. The Temperature decrease % ([2]; i.p., 75 mg/kg, 1 h) was 20.0%, the Temperature decrease % ([2]; i.p., 75 mg/kg, 2 h) was 29.2% and the Temperature decrease % ([2]; i.p., 75 mg/kg, 3 h) was 34.7%. The Temperature decrease % ([2]; i.p., 100 mg/kg, 1 h) was 28.0%, the Temperature decrease % ([2]; i.p., 100 mg/kg, 2 h) was 39.1% and the Temperature decrease % ([2]; i.p., 100 mg/kg, 3 h) was 31.3%. The Temperature decrease % ([2]; os, 50 mg/kg, 1 h) was 18.0%, the Temperature decrease % ([2]; os, 50 mg/kg, 6 h) was 20.0% and the Temperature decrease % ([2]; os, 50 mg/kg, 24 h) was 29.5%. It also gave a Temperature decrease % ([2]; os, 75 mg/kg, 1 h) of 20.0%, a Temperature decrease % ([2]; os, 75 mg/kg, 6 h) of 26.0% and a Temperature decrease % ([2]; os, 75 mg/kg, 24 h) of 27.0%. It also gave a Temperature decrease % ([2]; os, 100 mg/kg, 1 h) of 32.0%, a Temperature decrease % ([2]; os, 100 mg/kg, 6 h) of 30.9% and a Temperature decrease % ([2]; os, 100 mg/kg, 24 h) of 47.2%. It also gave a Mean number lesions (gastric mucosa; 50 mg/kg) of 2, a Mean number severity (gastric mucosa; 50 mg/kg) of 2 and a Mean number lesions (gastric mucosa; 100 mg/kg) of 2.5. For the same compound, the Mean number severity (gastric mucosa; 100 mg/kg) was 3.5, the Mean number lesions (gastric mucosa; 200 mg/kg) was 3 and the Mean number severity (gastric mucosa; 200 mg/kg) was 4.

For `CC(=O)Oc1ccccc1C(=O)O` [Aspirin, reference compound], the inhibition at 1 µg/mL [3] was 15%, the inhibition at 5 µg/mL [3] was 60% and the inhibition at 10 µg/mL [3] was 100%.
